In PMC11124870, “Effect of Antioxidants in Medicinal Products on Intestinal Drug Transporters” (Pharmaceutics, 2024):
Where “and” joins values, the source holds several entries; their conditions need not be identical. Identical values can stand only once.

Biological target: T1, OATP2B1 (Homo sapiens, UniProt O94956)
T1 sequence (O94956 1-709): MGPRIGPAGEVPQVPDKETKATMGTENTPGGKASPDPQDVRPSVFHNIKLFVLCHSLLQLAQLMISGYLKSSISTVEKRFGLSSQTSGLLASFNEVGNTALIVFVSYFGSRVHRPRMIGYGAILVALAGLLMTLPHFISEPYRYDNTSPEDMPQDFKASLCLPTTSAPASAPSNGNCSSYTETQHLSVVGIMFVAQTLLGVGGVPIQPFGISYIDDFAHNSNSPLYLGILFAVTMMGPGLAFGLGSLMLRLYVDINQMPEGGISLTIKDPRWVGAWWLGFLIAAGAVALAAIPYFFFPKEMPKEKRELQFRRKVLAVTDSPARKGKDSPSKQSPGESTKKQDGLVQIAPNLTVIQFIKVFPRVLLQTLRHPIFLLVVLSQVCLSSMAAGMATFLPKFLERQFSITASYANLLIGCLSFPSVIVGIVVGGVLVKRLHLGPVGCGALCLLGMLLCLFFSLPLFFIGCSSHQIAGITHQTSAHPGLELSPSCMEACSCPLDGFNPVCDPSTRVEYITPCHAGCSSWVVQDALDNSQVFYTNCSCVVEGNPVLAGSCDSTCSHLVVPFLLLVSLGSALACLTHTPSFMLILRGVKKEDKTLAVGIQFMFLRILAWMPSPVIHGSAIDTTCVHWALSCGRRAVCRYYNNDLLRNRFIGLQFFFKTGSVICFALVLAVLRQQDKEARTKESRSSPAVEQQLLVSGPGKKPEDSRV
Assay: 3H-valsartan uptake inhibition in HEK-293-OATP2B1 cells
Conditions: read-out: IC50 OATP2B1, valsartan uptake, substrate 3H-valsartan, three independent experiments
Protocol: The uptake transporter assay was performed as reported previously with minor modifications [15]. A day before the uptake assay, Isoplate 96-well plates were coated with poly-D-lysine in PBS with calcium and magnesium and washed with PBS. […] An assay mixture of ^3H-estrone sulfate, a known inhibitor of OATP2B1, or an antioxidant was prepared and incubated in a 37 °C incubator for 10 min. The cells were washed with ice-cold HBSS three times and incubated with MicroScint fluid on a shaker for 1 h for cell lysis. Radioactivity was measured by liquid scintillation counting with a MicroBeta^2® microplate counter. […] On the day of experiment, cells were washed twice with 0.4 mL of HBSS per well and then pre-incubated for 10–20 min in 0.4 mL of HBSS. […] Uptake of ^3H-valsartan was stopped after 15 min by washing three times with ice-cold HBSS. Cells were lysed in 750 µL of lysis buffer (0.1 N NaOH and 0.1% SDS in double-distilled water) per well while shaking for 60 min. A total of 690 µL of the lysate from each well was then added to 2.5 mL of EcoLite scintillation fluid. The radioactivity was determined on a LS6500 Scintillation Counter (Beckman Coulter). Protein concentration was measured with a Pierce™ BCA protein assay kit. The radioactivity in each well was corrected for protein concentration. All values were determined in triplicate, and the final values are expressed as % uptake relative to negative control (1% DMSO).
Antioxidants were screened at a concentration of 200 μM.

Structure (SMILES): COc1ccc(O)cc1C(C)(C)C [Butylated hydroxyanisole (BHA), 2-tert-Butyl-4-hydroxyanisole]
- IC50: 19 µM and 19.1 µM
